# Values quoted from earlier work, collected in US6710179B2, “Compounds with analgesic effect” (AstraZeneca Canada Inc., priority 1996, dated 2004).
# Assays:
# [1] = non-peptidic δ antagonists; prior art statement
# δ receptor = δ receptor (Homo sapiens, UniProt P41143); conditions: non-peptidic δ antagonists; review Takemori and Portoghese 1992
# Sequence of δ receptor (P41143 whole entry): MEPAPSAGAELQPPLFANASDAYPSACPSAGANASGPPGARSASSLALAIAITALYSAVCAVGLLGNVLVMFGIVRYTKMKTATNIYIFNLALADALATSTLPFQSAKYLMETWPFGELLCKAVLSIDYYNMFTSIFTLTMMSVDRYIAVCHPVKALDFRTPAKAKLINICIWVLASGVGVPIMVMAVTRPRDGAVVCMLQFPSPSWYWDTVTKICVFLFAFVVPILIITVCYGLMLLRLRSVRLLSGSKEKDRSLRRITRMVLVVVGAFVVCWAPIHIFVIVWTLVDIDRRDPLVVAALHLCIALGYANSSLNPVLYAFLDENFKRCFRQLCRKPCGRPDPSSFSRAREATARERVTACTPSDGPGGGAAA
compound,measurement,setting,value
Oc1ccc2c3c1O[C@H]1c4[nH]c5ccccc5c4C[C@@]4(O)[C@@H](C2)N(CC2CC2)CC[C@]314 [naltrindole],analgesic activity,[1],no analgesic activity
same,selectivity for the δ receptor vs. μ receptor binding,δ receptor,< 10 fold
